Test [1] has as its target T1, 4-hydroxy-tetrahydrodipicolinate synthase (Escherichia coli K-12, UniProt P0A6L2).
T1 sequence (P0A6L2 whole entry): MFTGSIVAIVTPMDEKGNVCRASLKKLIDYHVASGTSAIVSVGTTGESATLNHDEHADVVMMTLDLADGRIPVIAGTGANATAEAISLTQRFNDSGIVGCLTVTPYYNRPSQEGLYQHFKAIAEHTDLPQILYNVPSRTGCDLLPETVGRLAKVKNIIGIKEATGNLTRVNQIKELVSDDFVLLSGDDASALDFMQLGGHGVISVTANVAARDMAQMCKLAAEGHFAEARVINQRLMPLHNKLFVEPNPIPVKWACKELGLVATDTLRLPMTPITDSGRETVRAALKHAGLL
In words: (§1) Inhibition of Escherichia coli dihydrodipicolinate synthase.

Test [2] has as its target T2, 4-hydroxy-tetrahydrodipicolinate synthase (Escherichia coli K-12) (UniProt P0A6L2).
T2 sequence (whole entry): T1 sequence (P0A6L2 whole entry)
In words: Competitive inhibition of Escherichia coli dihydrodipicolinate synthase using DL-ASA as substrate.

Test [3] addresses T2, 4-hydroxy-tetrahydrodipicolinate synthase (Escherichia coli K-12). In words: Competitive inhibition of Escherichia coli dihydrodipicolinate synthase using pyruvate as substrate.
Test [4] shares this target. In words: Inhibition of Escherichia coli dihydrodipicolinate synthase at 1 mM relative to control.
Test [5] in a line: Inhibition of Campylobacter jejuni dihydrodipicolinate synthase.
Test [6] deals with T2, 4-hydroxy-tetrahydrodipicolinate synthase (Escherichia coli K-12). In words: Uncompetitive inhibition of Escherichia coli dihydrodipicolinate synthase using DL-ASA as substrate.
Test [7] is described as follows: Reversible competitive inhibition of Bacillus subtilis PCI-219 dihydrodipicolinate synthase using DL-ASA as substrate after 10 mins by double reciprocal plot analysis.
The nature of test [8]: Reversible competitive inhibition of Bacillus subtilis PCI-219 dihydrodipicolinate synthase using pyruvate as substrate after 10 mins by double reciprocal plot analysis.
Test [9] addresses 4-hydroxy-tetrahydrodipicolinate synthase (Mycobacterium tuberculosis, UniProt P9WP25). In words: Reversible inhibition of recombinant N-terminal His-6 tagged Mycobacterium tuberculosis dihydrodipicolinate synthase using (S)-ASA as substrate preincubated for 5 mins followed by substrate addition measured over 10 mins by spectrophotometric analysis.
For test [10], the target named is T2, 4-hydroxy-tetrahydrodipicolinate synthase (Escherichia coli K-12). The description is as §1.
The target of test [11] is T1, 4-hydroxy-tetrahydrodipicolinate synthase. In words: Reversible inhibition of Escherichia coli dihydrodipicolinate synthase using ASA as substrate.
The target is the same in test [12]. In words: Inhibition of Escherichia coli dihydrodipicolinate synthase assessed as inhibitory dissociation constant using ASA as substrate.
Test [13] deals with T2, 4-hydroxy-tetrahydrodipicolinate synthase (Escherichia coli K-12). In words: Inhibition of Escherichia coli dihydrodipicolinate synthase at 4.6 mM relative to control.
The target is the same in test [14]. In words: Uncompetitive inhibition of Escherichia coli dihydrodipicolinate synthase using pyruvate as substrate.
Test [15] in a line: Reversible inhibition of Campylobacter jejuni dihydrodipicolinate synthase.
For test [16], the target named is T2, 4-hydroxy-tetrahydrodipicolinate synthase (Escherichia coli K-12). In words: Inhibition of Escherichia coli dihydrodipicolinate synthase at 1.2 mM relative to control.
The target of test [17] is T1, 4-hydroxy-tetrahydrodipicolinate synthase. In words: Reversible competitive inhibition of Escherichia coli dihydrodipicolinate synthase.
The target in test [18] is T2, 4-hydroxy-tetrahydrodipicolinate synthase (Escherichia coli K-12). In words: Competitive inhibition of Escherichia coli dihydrodipicolinate synthase using ASA as substrate.
Test [19] deals with T1, 4-hydroxy-tetrahydrodipicolinate synthase. In words: Reversible inhibition of Escherichia coli dihydrodipicolinate synthase using pyruvate as substrate.
Test [20] has as its target 4-hydroxy-tetrahydrodipicolinate synthase (Mycobacterium tuberculosis) (UniProt P9WP25). In words: Inhibition of recombinant N-terminal His-6 tagged Mycobacterium tuberculosis dihydrodipicolinate synthase using (S)-ASA as substrate preincubated for 5 mins followed by substrate addition measured over 10 mins by spectrophotometric analysis relative to control.

In general, IC50 refers to the concentration that inhibits the measured activity by half. The inhibition is the percentage by which the read-out fell short of the control. A word on the Ki: it is a dissociation constant, usually derived from enzyme kinetics or from competition with a known ligand.

SMILES strings stand for the structures.

4-hydroxy-tetrahydrodipicolinate synthase (Mycobacterium tuberculosis), sequence (P9WP25 whole entry): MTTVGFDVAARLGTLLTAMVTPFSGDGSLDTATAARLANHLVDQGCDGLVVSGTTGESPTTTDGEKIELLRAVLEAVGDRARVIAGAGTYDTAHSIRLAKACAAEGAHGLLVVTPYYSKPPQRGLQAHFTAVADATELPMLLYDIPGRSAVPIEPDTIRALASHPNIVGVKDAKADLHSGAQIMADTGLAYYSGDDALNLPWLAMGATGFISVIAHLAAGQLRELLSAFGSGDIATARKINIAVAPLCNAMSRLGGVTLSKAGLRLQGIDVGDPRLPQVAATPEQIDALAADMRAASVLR
4-hydroxy-tetrahydrodipicolinate synthase (Mycobacterium tuberculosis, UniProt P9WP25), sequence (P9WP25 whole entry): as above

In turn, `O=NN1CCCCC1C(=O)O` (racemic) returned an IC50 in test [1] of 3500 µM.

Consider `O=C(O)C(=O)CF`, for which the Kis in test [2] was found to be 2 mM; in test [3] it was 0.22 mM.

Regarding `O=NN1CCC[C@H]1C(=O)O`, 7500 µM corresponded to half-maximal inhibition in test [1] (IC50).

In test [4], `NCCCC[C@H](N)C(=O)O` [LYSINE] returned an inhibition of 50%. Besides, the Kis in test [2] is 0.2 mM. Further, the IC50 was 65 µM in test [5] (read-out: IC50(app)) and 180 µM in [1].

In test [1], `O=C(O)C1=CCCC(C(=O)O)C1` (stereo unspecified) registered an IC50 of 15000 µM.

For `CCC(=O)C(=O)O`, the Kis in test [3] came out at 0.83 mM; in [6], 1.3 mM.

Take `O=C(O)CCCCC(=O)C(=O)O`: the Ki in test [7] worked out at 220 µM; in test [8] it was 160 µM; in test [9], 33 µM.

The molecule `O=CC(=O)O` yielded a Kis in test [3] of 0.016 mM. The molecule also yielded a Kii in test [6] of 0.028 mM.

In test [1], `O=C(O)c1cccc(C(=O)O)[n+]1[O-]` returned an IC50 of 200 µM.

In test [10], `CC(=O)C(=O)O` displayed a Kic of 54 µM and a Kiuc of 12 µM.

Regarding `N[C@@H](CC(=O)O)C(=O)O` [ASPARTIC ACID], the Ki in test [11] was in the range of 90 to 140 µM; in [12], 21000 to 39000 µM.

With `NCCSC[C@H](N)C(=O)O`, the inhibition in test [13] worked out at 50%. The Kis in [2] was found to be 2.4 mM. In addition, the results for the Kii in test [6] and in [14] were 4.7 mM and 1.9 mM, respectively.

`COC(=O)c1cccc(C(=O)OC)n1` came in with an IC50 in [1] of 700 µM.

In the case of `NCCCC[C@@](N)(CC[C@](N)(CCCCN)C(=O)O)C(=O)O`, in test [5] (read-out: IC50), the IC50 worked out at 0.3 µM. The molecule also gave a Ki in test [15] of 0.14 µM.

In test [16], `O=C(O)c1cccc(C(=O)O)n1` [DIPICOLINIC ACID] displayed an inhibition of 50%. Besides, the IC50 in test [17] is 400 µM. This molecule registered a Ki in [1] of 11000 µM.

Turning to `O=C(O)c1cccc(C(=O)O)c1` [ISOPHTHALIC ACID], the Ki in test [1] is 5400 to 5600 µM.

On to `O=CCCC(=O)O`, for which, in [18], the Kis came to 44 µM.

As for `N[C@H]1CCOC1=O` [HOMOSERINE LACTONE], the Ki is 8000 to 15000 µM in test [19] and 12000 to 22000 µM in [11].

In turn, `CCCC(=O)C(=O)O` registered a Kis in test [3] of 0.7 mM. The Kii in test [6] came to 1.6 mM.

In [10], `N[C@@H](CC=O)C(=O)O` displayed a Kic of 31 µM and a Kiuc of 26 µM.

`c1cc(-c2nnn[nH]2)nc(-c2nnn[nH]2)c1` displayed an IC50 in test [1] of 250 µM.

`N[C@@H](CCC(=O)O)C(=O)O` [GLUTAMIC ACID]: the Ki in test [12] lay within 9000 to 24000 µM.

Regarding `NC1CCCC1=O` (stereo unspecified), the Ki in test [12] is 12000 to 24000 µM.

In the case of `O=C(O)CCCCC(O)C(=O)O` (stereo unspecified), the inhibition in test [20] is 74%.

In test [1], `COC(=N)c1cccc(C(=N)OC)n1` returned an IC50 of 200 µM.

Consider `N#Cc1cccc(C#N)n1`, for which 300 µM corresponded to half-maximal inhibition in test [1] (IC50).

Regarding `O=C(O)C(=O)CBr` [BROMOPYRUVATE], the Ki in test [19] worked out at 160 µM.

For the origin of these results see ChEMBL document CHEMBL4334427 (Medchemcomm, 2019).
